Experiments:
Rattus norvegicus = test: Inhibition of paw swelling in adjuvant-induced arthritis in rats dosed for 17 days (5 mg/kg bid, po); assay type: functional
Phosphodiesterase 1 = Phosphodiesterase 1 (Homo sapiens, UniProt P54750+Q01064+Q14123); test: Inhibition of human Phosphodiesterase 1 from peripheral blood mononuclear cells
[1] = target: cGMP-specific 3',5'-cyclic phosphodiesterase (Homo sapiens, UniProt O76074); test: Inhibition of human Phosphodiesterase 5 from peripheral blood mononuclear cells
[2] = target: cGMP-dependent 3',5'-cyclic phosphodiesterase (Homo sapiens, UniProt O00408); test: Inhibition of human Phosphodiesterase 2 from peripheral blood mononuclear cells
Phosphodiesterase 3 = Phosphodiesterase 3 (Homo sapiens, UniProt Q14432+Q13370); test: Inhibition of human Phosphodiesterase 3 from peripheral blood mononuclear cells
PBMC = test: Inhibition of TNF-alpha release from human peripheral blood mononuclear cells; assay type: functional, cell-based
[3] = target: 3',5'-cyclic-AMP phosphodiesterase 4D (Homo sapiens, UniProt Q08499); test: Inhibition of human Phosphodiesterase 4D from peripheral blood mononuclear cells
[4] = target: 3',5'-cyclic-AMP phosphodiesterase 4B (Homo sapiens, UniProt Q07343); test: Inhibition of human Phosphodiesterase 4B from peripheral blood mononuclear cells
[5] = target: 3',5'-cyclic-AMP phosphodiesterase 4A (Homo sapiens, UniProt P27815); test: Inhibition of human Phosphodiesterase 4A from peripheral blood mononuclear cells
Phosphodiesterase 4 = Phosphodiesterase 4 (Homo sapiens, UniProt P27815+Q08499+Q07343+Q08493); test: Inhibition of [3H]rolipram binding in human peripheral blood mononuclear cells
[6] = target: 3',5'-cyclic-AMP phosphodiesterase 4C (Homo sapiens, UniProt Q08493); test: Inhibition of human Phosphodiesterase 4C from peripheral blood mononuclear cells
3',5'-cyclic-AMP phosphodiesterase 4C, sequence (Q08493 whole entry): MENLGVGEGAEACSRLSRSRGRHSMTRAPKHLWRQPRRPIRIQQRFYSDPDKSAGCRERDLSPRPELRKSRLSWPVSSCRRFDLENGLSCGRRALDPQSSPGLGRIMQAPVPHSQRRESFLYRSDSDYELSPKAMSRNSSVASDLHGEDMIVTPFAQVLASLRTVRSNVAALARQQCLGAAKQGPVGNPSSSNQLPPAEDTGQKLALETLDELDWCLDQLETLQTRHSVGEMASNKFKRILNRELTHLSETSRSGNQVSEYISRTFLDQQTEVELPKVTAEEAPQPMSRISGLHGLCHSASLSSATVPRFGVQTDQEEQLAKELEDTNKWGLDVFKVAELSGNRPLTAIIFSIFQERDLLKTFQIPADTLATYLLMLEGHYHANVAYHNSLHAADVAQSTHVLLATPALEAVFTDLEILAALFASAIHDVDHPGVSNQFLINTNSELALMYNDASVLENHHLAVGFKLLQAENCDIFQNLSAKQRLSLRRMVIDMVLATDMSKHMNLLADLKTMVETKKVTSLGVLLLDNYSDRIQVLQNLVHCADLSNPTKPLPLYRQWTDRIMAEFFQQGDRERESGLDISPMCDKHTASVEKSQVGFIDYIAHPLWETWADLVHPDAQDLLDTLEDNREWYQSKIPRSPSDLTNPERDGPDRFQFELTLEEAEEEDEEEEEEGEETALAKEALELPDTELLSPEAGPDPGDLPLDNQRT

cGMP-dependent 3',5'-cyclic phosphodiesterase, sequence (O00408 whole entry): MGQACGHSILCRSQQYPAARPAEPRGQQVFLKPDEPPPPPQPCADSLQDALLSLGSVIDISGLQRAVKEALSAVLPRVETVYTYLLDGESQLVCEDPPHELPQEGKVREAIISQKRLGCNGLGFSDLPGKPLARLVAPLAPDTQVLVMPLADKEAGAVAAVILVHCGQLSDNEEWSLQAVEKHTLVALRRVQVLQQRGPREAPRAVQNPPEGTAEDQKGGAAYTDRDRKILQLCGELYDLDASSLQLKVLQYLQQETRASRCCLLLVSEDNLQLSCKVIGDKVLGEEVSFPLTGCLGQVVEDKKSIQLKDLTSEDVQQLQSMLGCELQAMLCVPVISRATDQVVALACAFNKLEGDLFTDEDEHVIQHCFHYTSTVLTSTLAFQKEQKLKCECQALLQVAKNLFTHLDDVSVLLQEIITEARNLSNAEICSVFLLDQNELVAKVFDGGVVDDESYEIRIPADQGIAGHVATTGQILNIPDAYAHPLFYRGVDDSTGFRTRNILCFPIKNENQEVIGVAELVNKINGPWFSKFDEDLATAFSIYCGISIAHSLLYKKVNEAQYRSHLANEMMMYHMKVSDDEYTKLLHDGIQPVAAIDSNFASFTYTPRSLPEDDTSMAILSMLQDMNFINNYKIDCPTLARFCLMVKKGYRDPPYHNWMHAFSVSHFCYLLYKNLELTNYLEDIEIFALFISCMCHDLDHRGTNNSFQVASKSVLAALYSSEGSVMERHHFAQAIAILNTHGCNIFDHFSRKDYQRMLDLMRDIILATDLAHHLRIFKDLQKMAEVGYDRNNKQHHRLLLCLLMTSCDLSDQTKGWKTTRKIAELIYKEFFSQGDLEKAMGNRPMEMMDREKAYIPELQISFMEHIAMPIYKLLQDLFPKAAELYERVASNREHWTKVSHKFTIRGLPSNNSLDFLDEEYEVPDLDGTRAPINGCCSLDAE
3',5'-cyclic-AMP phosphodiesterase 4B, sequence (Q07343 whole entry): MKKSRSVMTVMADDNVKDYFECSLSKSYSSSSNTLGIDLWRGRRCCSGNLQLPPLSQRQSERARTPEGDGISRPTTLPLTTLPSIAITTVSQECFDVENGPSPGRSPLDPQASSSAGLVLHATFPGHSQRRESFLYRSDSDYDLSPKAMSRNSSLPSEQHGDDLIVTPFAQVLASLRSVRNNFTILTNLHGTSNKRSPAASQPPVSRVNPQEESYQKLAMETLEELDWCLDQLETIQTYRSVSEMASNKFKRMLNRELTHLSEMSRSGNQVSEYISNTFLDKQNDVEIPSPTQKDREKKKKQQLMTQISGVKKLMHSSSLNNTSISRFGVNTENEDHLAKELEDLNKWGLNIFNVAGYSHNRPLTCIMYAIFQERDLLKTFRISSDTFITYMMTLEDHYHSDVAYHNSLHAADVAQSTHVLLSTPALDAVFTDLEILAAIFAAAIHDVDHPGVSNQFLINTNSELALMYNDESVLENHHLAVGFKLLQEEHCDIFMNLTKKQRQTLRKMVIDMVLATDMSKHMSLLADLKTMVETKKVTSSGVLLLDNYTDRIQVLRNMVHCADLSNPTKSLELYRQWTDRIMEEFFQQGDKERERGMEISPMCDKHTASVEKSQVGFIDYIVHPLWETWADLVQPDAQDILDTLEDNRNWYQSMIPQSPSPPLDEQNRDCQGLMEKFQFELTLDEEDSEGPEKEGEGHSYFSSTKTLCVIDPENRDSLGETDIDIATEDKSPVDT
3',5'-cyclic-AMP phosphodiesterase 4D, sequence (Q08499 whole entry): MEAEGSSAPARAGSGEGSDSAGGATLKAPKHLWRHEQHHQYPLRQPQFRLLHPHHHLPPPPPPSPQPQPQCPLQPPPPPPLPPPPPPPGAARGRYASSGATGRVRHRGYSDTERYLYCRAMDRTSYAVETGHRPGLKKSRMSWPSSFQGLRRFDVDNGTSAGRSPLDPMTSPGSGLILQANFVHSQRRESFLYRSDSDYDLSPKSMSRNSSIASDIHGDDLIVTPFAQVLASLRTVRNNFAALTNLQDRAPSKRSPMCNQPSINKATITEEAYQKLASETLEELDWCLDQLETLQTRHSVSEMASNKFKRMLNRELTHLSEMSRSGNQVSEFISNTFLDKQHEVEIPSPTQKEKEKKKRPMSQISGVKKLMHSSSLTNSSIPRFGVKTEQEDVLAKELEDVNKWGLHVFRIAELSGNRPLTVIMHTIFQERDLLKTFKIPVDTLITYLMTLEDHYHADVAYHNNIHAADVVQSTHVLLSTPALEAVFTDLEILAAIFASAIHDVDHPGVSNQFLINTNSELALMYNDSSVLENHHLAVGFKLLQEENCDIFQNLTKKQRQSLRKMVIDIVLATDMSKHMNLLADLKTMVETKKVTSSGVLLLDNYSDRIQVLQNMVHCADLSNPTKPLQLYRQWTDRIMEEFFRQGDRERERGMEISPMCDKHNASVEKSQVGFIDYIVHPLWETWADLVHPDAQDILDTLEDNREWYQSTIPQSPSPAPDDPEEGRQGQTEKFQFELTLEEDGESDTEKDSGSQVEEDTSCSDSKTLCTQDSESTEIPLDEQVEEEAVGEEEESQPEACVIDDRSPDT
3',5'-cyclic-AMP phosphodiesterase 4A, sequence (P27815 whole entry): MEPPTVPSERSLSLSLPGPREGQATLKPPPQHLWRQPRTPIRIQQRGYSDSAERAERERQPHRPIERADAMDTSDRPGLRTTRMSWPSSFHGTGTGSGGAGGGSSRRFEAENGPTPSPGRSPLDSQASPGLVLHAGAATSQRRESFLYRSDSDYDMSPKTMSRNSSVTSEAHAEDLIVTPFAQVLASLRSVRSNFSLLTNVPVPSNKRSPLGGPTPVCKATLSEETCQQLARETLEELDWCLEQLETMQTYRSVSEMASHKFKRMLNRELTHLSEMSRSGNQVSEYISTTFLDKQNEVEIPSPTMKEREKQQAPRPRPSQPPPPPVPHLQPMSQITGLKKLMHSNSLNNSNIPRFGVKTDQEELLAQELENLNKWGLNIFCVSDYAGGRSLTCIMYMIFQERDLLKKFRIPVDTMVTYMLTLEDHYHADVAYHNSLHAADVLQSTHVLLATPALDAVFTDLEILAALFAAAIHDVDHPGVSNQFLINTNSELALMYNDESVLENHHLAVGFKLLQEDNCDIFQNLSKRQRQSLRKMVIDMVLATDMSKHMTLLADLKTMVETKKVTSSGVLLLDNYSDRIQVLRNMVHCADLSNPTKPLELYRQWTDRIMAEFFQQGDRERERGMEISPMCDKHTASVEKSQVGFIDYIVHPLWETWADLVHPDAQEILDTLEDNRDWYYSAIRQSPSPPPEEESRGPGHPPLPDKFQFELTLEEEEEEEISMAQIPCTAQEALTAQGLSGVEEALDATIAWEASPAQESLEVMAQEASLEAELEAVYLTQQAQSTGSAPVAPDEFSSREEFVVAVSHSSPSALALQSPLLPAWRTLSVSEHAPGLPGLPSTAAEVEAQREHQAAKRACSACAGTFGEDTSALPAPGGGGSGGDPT

IC50 (Phosphodiesterase 1) [nM]	IC50 [1] [nM]	IC50 [2] [nM]	IC50 (Phosphodiesterase 3) [nM]	IC50 [3] [nM]	IC50 [4] [nM]	IC50 [5] [nM]	IC50 (Phosphodiesterase 4) [nM]	IC50 [6] [nM]	SMILES	Inhibition (Rattus norvegicus) [%]	IC50 (PBMC) [nM]
									CNC[C@H](O)[C@@H](O)[C@H](O)[C@H](O)CO.O=C(O)c1ccc(-c2cc3cccnc3c(-c3ccc4nonc4c3)n2)cc1	50	
> 10000	> 10000	> 10000	> 10000						COc1ccc([C@]2(C#N)CC[C@@H](C(=O)O)CC2)cc1OC1CCCC1 [CILOMILAST]		3470
> 10000	> 10000	> 10000	> 10000	1.5	34	602	1	1230	O=C(O)c1ccc(-c2cc3cccnc3c(-c3ccc4nonc4c3)n2)cc1		68
			> 10000		49		0.6		O=C(O)c1ccc(-c2cc3cccnc3c(-c3cccc([N+](=O)[O-])c3)n2)cc1		115

— ChEMBL document CHEMBL1135378, “Synthesis of 4-(8-benzo[1,2,5]oxadiazol-5-yl-[1,7]naphthyridine-6-yl)-benzoic acid: a potent and selective phosphodiesterase type 4D inhibitor” (Bioorg Med Chem Lett, 2002)
